From patent US20150376172A1, “FLUORO-[1,3]OXAZINES AS BACE1 INHIBITORS” (HOFFMANN-LA ROCHE INC., priority 2013, published 2015) come the findings set out here.

Where a name gives a salt, the structure may show the parent alone.

The target in this assay is T1, BACE1 (Homo sapiens, UniProt P56817).
T1 construct: endogenous in cells; host or cells: HEK293 APP cells
T1 sequence (P56817 46-501): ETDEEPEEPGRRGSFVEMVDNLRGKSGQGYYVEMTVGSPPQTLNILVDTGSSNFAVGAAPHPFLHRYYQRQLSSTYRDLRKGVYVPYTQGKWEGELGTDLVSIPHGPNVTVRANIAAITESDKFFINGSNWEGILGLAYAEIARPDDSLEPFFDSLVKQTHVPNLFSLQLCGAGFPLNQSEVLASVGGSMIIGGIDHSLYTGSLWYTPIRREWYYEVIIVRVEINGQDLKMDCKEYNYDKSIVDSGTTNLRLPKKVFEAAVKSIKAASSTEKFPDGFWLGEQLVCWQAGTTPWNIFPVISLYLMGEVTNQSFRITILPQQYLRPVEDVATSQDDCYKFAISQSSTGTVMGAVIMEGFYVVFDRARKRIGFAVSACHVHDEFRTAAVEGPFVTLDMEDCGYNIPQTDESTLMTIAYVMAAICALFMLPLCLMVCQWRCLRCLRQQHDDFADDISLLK
As to the kind of experiment: Cellular Aβ-lowering assay (Abeta 40 AlphaLISA). Conditions: HEK293 APP cells; 18-20 hrs incubation; Aβ 40 in culture supernatants by AlphaLISA; read-out: BACE1 cell act. Aβ40 IC50. Format: cell-based. As to the method: Cellular Aβ-lowering assay:
The Abeta 40 AlphaLISA Assay can be used. The HEK293 APP cells were seeded in 96 well Microtiter plates in cell culture medium (Iscove's, plus 10% (v/v) fetal bovine serum, penicillin/streptomycin) to about 80% confluency and the compounds were added at a 3× concentration in ⅓ volume of culture medium (final DMSO concentration was kept at 1% v/v). After 18-20 hrs incubation at 37° C. and 5% CO2 in a humidified incubator, the culture supernatants were harvested for the determination of Aβ 40 concentrations using Perkin-Elmer Human Amyloid beta 1-40 (high specificity) Kit (Cat#AL275C).
In a Perkin-Elmer White Optiplate-384 (Cat#6007290), 2 ul culture supernatants were combined with 2 μl of a 10× AlphaLISA Anti-hAβAcceptor beads+Biotinylated Antibody Anti-Aβ1-40 Mix (50 μg/mL/5 nM). After 1 hour room temperature incubation, 16 μl of a 1.25× preparation of Streptavidin (SA) Donor beads (25 μg/mL) were added and incubated for 30 minutes in the Dark. Light Emission at 615 nm was then recorded using EnVision-Alpha Reader. Levels of Aβ 40 in the culture supernatants were calculated as percentage of maximum signal (cells treated with 1% DMSO without inhibitor). The IC50 values were calculated using the Excel XLfit software.
As usually defined, the IC50 is the concentration that gives 50% inhibition. Consider `Cc1cc(F)c([C@]2(C)C[C@@H](C(F)(F)F)OC(N)=N2)cc1C#Cc1ncc(Cl)cn1` [Example 72, (4S,6S)-4-(5-((5-Chloropyrimidin-2-yl)ethynyl)-2-fluoro-4-methylphenyl)-4-methyl-6-(trifluoromethyl)-5,6-dihydro-4H-1,3-oxazin-2-amine], for which the IC50 was found to be 110 nM.
Regarding `C[C@@]1(c2cc(C#Cc3cccnc3)ccc2F)C[C@@H](C(F)(F)F)OC(N)=N1` [Example 22, (4S,6S)-4-(2-Fluoro-5-(pyridin-3-ylethynyl)phenyl)-4-methyl-6-(trifluoromethyl)-5,6-dihydro-4H-1,3-oxazin-2-amine], the IC50 was found to be 470 nM.
Consider `Cc1cc(F)c([C@]2(C)C[C@@H](C(F)(F)F)OC(N)=N2)cc1-c1cnccc1F` [Example 73, (4S,6S)-4-(2-Fluoro-5-(4-fluoropyridin-3-yl)-4-methylphenyl)-4-methyl-6-(trifluoromethyl)-5,6-dihydro-4H-1,3-oxazin-2-amine], for which the IC50 was 1300 nM.
Consider `CC#Cc1cncc(-c2csc([C@]3(C)C[C@@H](C(F)(F)F)OC(N)=N3)c2)c1` [Example 29, (4S,6S)-4-Methyl-4-(4-(5-(prop-1-ynyl)pyridin-3-yl)thiophen-2-yl)-6-(trifluoromethyl)-5,6-dihydro-4H-1,3-oxazin-2-amine Hydrochloride], for which the IC50 came out at 310 nM.
To `C[C@@]1(c2cc(-c3cn(-c4ccc(C#N)cn4)nn3)ccc2F)C[C@@H](C(F)(F)F)OC(N)=N1` [Example 77, 6-(4-(3-((4S,6S)-2-Amino-4-methyl-6-(trifluoromethyl)-5,6-dihydro-4H-1,3-oxazin-4-yl)-4-fluorophenyl)-1H-1,2,3-triazol-1-yl)nicotinonitrile] belongs 180 nM; to `CC#Cc1cncc(-c2cc([C@]3(C)C[C@@H](C(F)(F)F)OC(N)=N3)c(F)cc2F)c1` [Example 19, (4S,6S)-4-(2,4-Difluoro-5-(5-(prop-1-ynyl)pyridin-3-yl)phenyl)-4-methyl-6-(trifluoromethyl)-5,6-dihydro-4H-1,3-oxazin-2-amine], 570 nM; to `CC#CCOc1cnc(C(=O)Nc2ccc(F)c([C@@]3(C)N=C(N)O[C@H](C(F)(F)F)[C@@H]3F)c2)cn1` [Example 7, N-(3-((4R,5R,6S)-2-Amino-5-fluoro-4-methyl-6-(trifluoromethyl)-5,6-dihydro-4H-1,3-oxazin-4-yl)-4-fluorophenyl)-5-(but-2-ynyloxy)pyrazine-2-carboxamide], 2 nM.
In the case of `C[C@@]1(c2cc(NC3CCc4cc(C#N)cnc43)ccc2F)C[C@@H](C(F)(F)F)OC(N)=N1` (stereo partly drawn) [Example 36, 7-(3-((4S,6S)-2-Amino-4-methyl-6-(trifluoromethyl)-5,6-dihydro-4H-1,3-oxazin-4-yl)-4-fluorophenylamino)-6,7-dihydro-5H-cyclopenta[b]pyridine-3-carbonitrile] it was 33 nM; in that of `C[C@@]1(c2cc(-c3ccccc3)ccc2F)C[C@@H](C(F)(F)F)OC(N)=N1` [Example 41, (4S,6S)-4-(4-Fluorobiphenyl-3-yl)-4-methyl-6-(trifluoromethyl)-5,6-dihydro-4H-1,3-oxazin-2-amine], 6420 nM.
To `C[C@@]1(c2cc(-c3cncc(Cl)n3)ccc2F)C[C@@H](C(F)(F)F)OC(N)=N1` [Example 15, (4S,6S)-4-(5-(6-Chloropyrazin-2-yl)-2-fluorophenyl)-4-methyl-6-(trifluoromethyl)-5,6-dihydro-4H-1,3-oxazin-2-amine] belongs 950 nM; to `C[C@@]1(c2cc(-c3cncnc3)ccc2F)C[C@@H](C(F)(F)F)OC(N)=N1` [Example 11, (4S,6S)-4-(2-fluoro-5-(pyrimidin-5-yl)phenyl)-4-methyl-6-(trifluoromethyl)-5,6-dihydro-4H-1,3-oxazin-2-amine], 420 nM.
For the molecule `C[C@@]1(c2cc(-c3cccnc3F)c(F)cc2F)C[C@@H](C(F)(F)F)OC(N)=N1` [Example 18, (4S,6S)-4-(2,4-Difluoro-5-(2-fluoropyridin-3-yl)phenyl)-4-methyl-6-(trifluoro-methyl)-5,6-dihydro-4H-1,3-oxazin-2-amine], the IC50 amounted to 120 nM.
To `N#Cc1cnc(C#Cc2ccc(F)c([C@]3(CF)C[C@@H](C(F)(F)F)OC(N)=N3)c2)c(Cl)c1` [Example 59, 6-((3-((4S,6S)-2-Amino-4-(fluoromethyl)-6-(trifluoromethyl)-5,6-dihydro-4H-1,3-oxazin-4-yl)-4-fluorophenyl)ethynyl)-5-chloronicotinonitrile] belongs 790 nM; to `Cc1cc(-c2cncc(-c3ccc(F)c([C@]4(CF)C[C@@H](C(F)(F)F)OC(N)=N4)c3)c2)n[nH]1` [Example 47, (4S,6S)-4-(2-fluoro-5-(5-(5-methyl-1H-pyrazol-3-yl)pyridin-3-yl)phenyl)-4-(fluoromethyl)-6-(trifluoromethyl)-5,6-dihydro-4H-1,3-oxazin-2-amine], 10600 nM.
In the case of `C[C@]1(c2cc(NC(=O)c3ccc(Cl)cn3)ccc2F)N=C(N)O[C@H](C(F)(F)F)[C@@H]1F` [Example 4, N-(3-((4R,5R,6S)-2-Amino-5-fluoro-4-methyl-6-(trifluoromethyl)-5,6-dihydro-4H-1,3-oxazin-4-yl)-4-fluorophenyl)-5-chloropicolinamide] it was 14 nM; in that of `C[C@]1(c2cc(NC(=O)c3ccc(Cl)cn3)ccc2F)N=C(N)O[C@@H](C(F)(F)F)[C@@H]1F` [Example 3, N-(3-((4R,5R,6R)-2-Amino-5-fluoro-4-methyl-6-(trifluoromethyl)-5,6-dihydro-4H-1,3-oxazin-4-yl)-4-fluorophenyl)-5-chloropicolinamide], 490 nM.
To `C[C@@]1(c2cc(-c3nc4ccc(Cl)cc4o3)ccc2F)C[C@@H](C(F)(F)F)OC(N)=N1` [Example 39, (4S,6S)-4-(5-(6-Chlorobenzo[d]oxazol-2-yl)-2-fluorophenyl)-4-methyl-6-(trifluoromethyl)-5,6-dihydro-4H-1,3-oxazin-2-amine] belongs 530 nM; to `C[C@@]1(c2c(F)ccc(NC(=O)c3ccc(C#N)cn3)c2F)C[C@@H](C(F)(F)F)OC(N)=N1` [Example 38, N-(3-((4S,6S)-2-amino-4-methyl-6-(trifluoromethyl)-5,6-dihydro-4H-1,3-oxazin-4-yl)-2,4-difluorophenyl)-5-cyanopicolinamide], 13 nM; to `Cc1cc(F)c([C@]2(C)C[C@@H](C(F)(F)F)OC(N)=N2)cc1-c1cccc(C#N)c1F` [Example 74, 5′-((4S,6S)-2-Amino-4-methyl-6-(trifluoromethyl)-5,6-dihydro-4H-1,3-oxazin-4-yl)-2,4′-difluoro-2′-methylbiphenyl-3-carbonitrile], 3560 nM.
Consider `C[C@@]1(c2cc(-c3nnc(-c4ccc(Cl)cc4)o3)ccc2F)C[C@@H](C(F)(F)F)OC(N)=N1` [Example 40, (4S,6S)-4-(5-(5-(4-Chlorophenyl)-1,3,4-oxadiazol-2-yl)-2-fluorophenyl)-4-methyl-6-(trifluoromethyl)-5,6-dihydro-4H-1,3-oxazin-2-amine], for which the concentration for half-maximal inhibition (IC50) was > 40000 nM.
In the case of `C[C@@]1(c2cc(-c3cncc(C#N)c3)cs2)C[C@@H](C(F)(F)F)OC(N)=N1` [Example 26, 5-(5-((4S,6S)-2-Amino-4-methyl-6-(trifluoromethyl)-5,6-dihydro-4H-1,3-oxazin-4-yl)thiophen-3-yl)nicotinonitrile Hydrochloride] it was 700 nM; in that of `NC1=N[C@](CF)(c2cc(C#Cc3cncc(Cl)c3)ccc2F)C[C@@H](C(F)(F)F)O1` [Example 61, (4S,6S)-4-(5-((5-Chloropyridin-3-yl)ethynyl)-2-fluorophenyl)-4-(fluoromethyl)-6-(trifluoromethyl)-5,6-dihydro-4H-1,3-oxazin-2-amine], 3490 nM.
To `C[C@@]1(c2cc(-c3cncnc3)cs2)C[C@@H](C(F)(F)F)OC(N)=N1` [Example 42, (4S,6S)-4-Methyl-4-(4-(pyrimidin-5-yl)thiophen-2-yl)-6-(trifluoromethyl)-5,6-dihydro-4H-1,3-oxazin-2-amine] belongs 2520 nM; to `C[C@@]1(c2cc(C#Cc3ccnc(Cl)c3)ccc2F)C[C@@H](C(F)(F)F)OC(N)=N1` [Example 20, (4S,6S)-4-(5-((2-Chloropyridin-4-yl)ethynyl)-2-fluorophenyl)-4-methyl-6-(trifluoromethyl)-5,6-dihydro-4H-1,3-oxazin-2-amine], 250 nM; to `C[C@@]1(c2cc(C#Cc3ccc(C#N)cn3)ccc2F)C[C@@H](C(F)(F)F)OC(N)=N1` [Example 21, 6-((3-((4S,6S)-2-Amino-4-methyl-6-(trifluoromethyl)-5,6-dihydro-4H-1,3-oxazin-4-yl)-4-fluorophenyl)ethynyl)nicotinonitrile], 59 nM.
In the case of `C[C@]1(c2cc(NC(=O)c3ccc(C#N)cn3)ccc2F)N=C(N)O[C@@H](C(F)(F)F)[C@@H]1F` [Example 1, N-(3-((4R,5R,6R)-2-Amino-5-fluoro-4-methyl-6-(trifluoromethyl)-5,6-dihydro-4H-1,3-oxazin-4-yl)-4-fluorophenyl)-5-cyanopicolinamide] it was 150 nM.
